Data reported in EP0462585B1, “Herbicidal composition” (ISHIHARA SANGYO KAISHA, LTD., priority 1990, dated 1991).
Counter-ions that a name gives are not always drawn. Like-named read-outs stand apart in the source and are kept apart here.

Columns and labels:
Type in all cases: in vivo
Digitaria sanguinalis = assay: Test Example 2 foliage treatment test, fresh weight of aerial part; Colby expected value; settings: foliar, 480 h, read-out: Growth Inhibition Rate (%) Found
Description: However, there may be a case that when two kinds of active ingredients are applied in combination, the resulting herbicidal activity is higher than one obtained by simply summing up the activity of each of the two active ingredients (i.e., an expected activity). In such a case, it is said that a synergistic action is found. The expected activity which is brought by a specific combination of two kinds of herbicides can be calculated by the following equation as described, for example, in S.R. Colby, Weeds, "Calculating Synergistic and Antagonistic Responses of Herbicide Combinations", Vol. 15, pp. 20-22 (1967). E = α + β -(α x β)/(100) [formula] In the above equation, α represents a growth inhibition rate (%) when treated with a (g/are) of herbicide A; β represents a growth inhibition rate (%) when treated with b (g/are) of herbicide B; and E represents an expected growth inhibition rate (%) when treated with a (g/are) of herbicide A and b (g/are) of herbicide B.
Upland soil was placed in 1/10000-are pots and sown with Digitaria sanguinalis. When the plants reached the four-leaf stage, a predetermined amount of each herbicidal composition which had been diluted with 15 ℓ, per are, of water and further admixed with 0.2 % (v/v) of a spreader (Shin Rino®) was foliarly applied on the plants using a small spray gun. 20 days after the foliage treatment application, the fresh weight of the aerial part of the plant was measured. The growth inhibition rate (%) calculated by the equation given in Test Example 1 (found value) and the growth inhibition rate (%) calculated by the above-cited Colby equation (calculated value) are listed in Table 2.

Solidago altissima = assay: Test Example 1 foliage treatment test, fresh weight of foliage; settings: foliar, 600 h, read-out: Growth Inhibition Rate (%)
Description: Upland soil was placed in 1/5000-are (are (a) = 100 m²) wagner pots and planted with hills of Solidago altissima collected in the fields, and the hills were thereafter grown in a greenhouse. When the plant height reached 20 to 30 cm, a predetermined amount of each herbicidal composition which had been diluted with 15 ℓ, per are, of water and further admixed with 0.05 % (v/v) of a spreader (Shin Rino®: manufactured by Nihon Nohyaku Co., Ltd.) was foliarly applied on the plants using a small spray gun. 25 days after the foliage treatment application, the fresh weight of foliage was measured. The growth inhibition rate (%), which is listed in Table 1, was calculated according to the following equation: Growth Inhibition Rate (%) = (1 -(Fresh Weight of Foliage in Treated Plot)/(Fresh Weight of Foliage in Untreated Plot)) x 100 [formula]

[1] = test system: weeds such as Solidago altissima, Agropyron smithii and Digitaria sanguinalis; assay: Test Example 3 field foliage treatment test, visual rating of herbicidal effect; settings: visual observation 30 days after foliage treatment
Description: In a field where weeds such as Solidago altissima, Agropyron smithii and Digitaria sanguinalis had been growing mixedly, foliage treatment application of a predetermined amount of each herbicidal composition which had been diluted with 15 ℓ, per are, of water and further admixed with 0.05 % (v/v) of a spreader (Shin Rino®) was done using a small spray gun when the average plant height of these weeds reached 20 to 40 cm. 30 days after the foliage treatment application, the herbicidal effect of the herbicidal composition was examined through visual observation according to the following evaluation criteria.

CP(=O)(O)CCC(N)C(=O)O (racemic) [Ammonium salt of D,L-isomer of Compound B, D,L-homoalanin-4-yl(methyl)phosphinic acid]
inhibition at 30 g/ha (Digitaria sanguinalis): 0.9% | inhibition at 50 g/ha (Digitaria sanguinalis): 12.8% | inhibition at 100 g/ha (Digitaria sanguinalis): 35.8% | inhibition at 200 g/ha (Digitaria sanguinalis): 52.3% | inhibition at 300 g/ha (Digitaria sanguinalis): 85% | inhibition at 400 g/ha (Digitaria sanguinalis): 90% | inhibition at 1000 g/ha (Digitaria sanguinalis): 100% | inhibition at 250 g/ha (Solidago altissima): 55% | inhibition at 500 g/ha (Solidago altissima): 72% | inhibition at 1000 g/ha (Solidago altissima): 84% | Rating ([1]; 5 g/a active ingredient): 5 (50 to 59) | Rating ([1]; 10 g/a active ingredient): 7 (70 to 79)

COc1cc(OC)nc(NC(=O)NS(=O)(=O)c2ncccc2C(F)(F)F)n1 [Compound A, 1-(4,6-dimethoxypyrimidin-2-yl)-3-(3-trifluoromethyl-2-pyridylsulfonyl)urea]
inhibition at 5 g/ha (Digitaria sanguinalis; 0.05 g/a active ingredient, 20 days after foliage treatment): 0% | inhibition at 10 g/ha (Digitaria sanguinalis; 0.1 g/a active ingredient, 20 days after foliage treatment): 3.5% | inhibition at 20 g/ha (Digitaria sanguinalis; 0.2 g/a active ingredient, 20 days after foliage treatment): 5.3% | inhibition at 40 g/ha (Digitaria sanguinalis; 0.4 g/a active ingredient, 20 days after foliage treatment): 16.9% | inhibition at 60 g/ha (Digitaria sanguinalis; 0.6 g/a active ingredient, 20 days after foliage treatment): 47.4% | inhibition at 100 g/ha (Digitaria sanguinalis; 1 g/a active ingredient, 20 days after foliage treatment): 67.3% | inhibition at 500 g/ha (Digitaria sanguinalis; 5 g/a active ingredient, 20 days after foliage treatment): 99.4% | inhibition at 25 g/ha (Solidago altissima; 0.25 g/a active ingredient, 25 days after foliage treatment): 46% | inhibition at 50 g/ha (Solidago altissima; 0.5 g/a active ingredient, 25 days after foliage treatment): 51% | inhibition at 100 g/ha (Solidago altissima; 1 g/a active ingredient, 25 days after foliage treatment): 63% | Rating ([1]; 0.5 g/a active ingredient): 5 (50 to 59) | Rating ([1]; 1 g/a active ingredient): 6 (60 to 69)

CP(=O)(O)CC[C@H](N)C(=O)O [Ammonium salt of L-isomer of Compound B, L-homoalanin-4-yl(methyl)phosphinic acid]
inhibition at 125 g/ha (Solidago altissima): 48% | inhibition at 250 g/ha (Solidago altissima): 68% | inhibition at 500 g/ha (Solidago altissima): 77% | Rating ([1]; 5 g/a active ingredient): 5 (50 to 59) | Rating ([1]; 10 g/a active ingredient): 6 (60 to 69)

C[C@H](NC(=O)[C@H](C)NC(=O)C(N)CCP(C)(=O)O)C(=O)O (stereo partly drawn) [Sodium salt of L-isomer of Compound C, L-2-amino-4-[(hydroxy)(methyl)phosphinoyl]butyryl-L-alanyl-L-alanine]
inhibition at 250 g/ha (Solidago altissima; 2.5 g/a active ingredient, 25 days after foliage treatment): 51% | inhibition at 500 g/ha (Solidago altissima; 5 g/a active ingredient, 25 days after foliage treatment): 70% | inhibition at 1000 g/ha (Solidago altissima; 10 g/a active ingredient, 25 days after foliage treatment): 79% | Rating ([1]; 5 g/a active ingredient): 5 (50 to 59) | Rating ([1]; 10 g/a active ingredient): 6 (60 to 69)
